Structures are written as SMILES. Read-outs that look alike come from different tables or passages of the source. Numbered stars: 1 amine (or outer) side, 2 acyl side, 3 side chain; on linkers, the order of the positions; unused ones are H or OH. Bridge positions count the residues as written; N and C are the ends. Square brackets hold non-standard residues; d marks the D form. Peptide text beside a SMILES is read from it. * marks the point of attachment. C20 diacid = O=C(O)CCCCCCCCCCCCCCCCCCC(=O)*; γGlu = O=C(O)[C@H](CCC(=O)[*:2])N[*:1]; 4Pal = N[C@@H](Cc1ccncc1)C(=O)O

This experiment deals with T1, human NPRA (Homo sapiens, UniProt P16066).
T1 construct: Full-Length cDNA Cloning and Generation of Cell Lines Overexpressing Natriuretic Peptide Receptors (NPRs); expressed in transfected cells; host or cells: Jump-in T-Rex HEK293 cells, pJTI R4 CMV-TO MCS pA vector, tetracycline induction
T1 sequence (P16066 33-1061): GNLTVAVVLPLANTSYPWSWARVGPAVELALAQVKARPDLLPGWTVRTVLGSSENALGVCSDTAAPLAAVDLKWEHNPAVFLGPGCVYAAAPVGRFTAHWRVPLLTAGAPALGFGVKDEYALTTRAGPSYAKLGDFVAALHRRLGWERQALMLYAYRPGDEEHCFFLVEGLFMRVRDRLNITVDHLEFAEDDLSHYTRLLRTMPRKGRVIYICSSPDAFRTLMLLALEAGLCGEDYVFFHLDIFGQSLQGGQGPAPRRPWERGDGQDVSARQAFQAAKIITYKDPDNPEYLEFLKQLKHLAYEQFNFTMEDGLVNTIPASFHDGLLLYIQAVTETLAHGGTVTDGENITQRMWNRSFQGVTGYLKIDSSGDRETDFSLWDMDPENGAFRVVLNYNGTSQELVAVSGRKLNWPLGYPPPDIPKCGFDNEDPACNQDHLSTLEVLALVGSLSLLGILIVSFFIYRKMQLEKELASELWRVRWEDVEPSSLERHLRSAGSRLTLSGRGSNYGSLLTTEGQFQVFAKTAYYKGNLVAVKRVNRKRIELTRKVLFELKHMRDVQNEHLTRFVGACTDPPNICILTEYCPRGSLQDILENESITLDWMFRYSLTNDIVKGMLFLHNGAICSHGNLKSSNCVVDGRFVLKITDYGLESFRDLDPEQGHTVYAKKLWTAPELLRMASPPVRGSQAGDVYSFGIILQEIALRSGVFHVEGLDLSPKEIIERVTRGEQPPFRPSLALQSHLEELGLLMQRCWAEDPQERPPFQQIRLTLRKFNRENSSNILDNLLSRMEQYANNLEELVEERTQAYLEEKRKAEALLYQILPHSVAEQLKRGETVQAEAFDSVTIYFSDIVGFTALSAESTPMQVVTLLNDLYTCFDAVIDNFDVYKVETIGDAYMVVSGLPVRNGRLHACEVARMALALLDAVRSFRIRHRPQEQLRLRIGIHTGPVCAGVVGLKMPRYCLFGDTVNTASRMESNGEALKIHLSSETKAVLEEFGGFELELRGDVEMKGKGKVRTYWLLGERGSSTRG
The experiment is described as follows: Human NPRA cGMP activity assay (HTRF) in HEK293 cells overexpressing NPRA. The format is cell-based. As for the experimental part:
All sequences were verified by full-length sequencing performed by ACGT DNA Sequencing Services (Wheeling, IL). The target cDNA was cloned into pJTI R4 CMV-TO MCS pA vector and then co-transfected with pJT1R4 Int vector into Jump-in™ T-Rex™ HEK293 cells for mammalian inducible expression using Jump-in™ T-Rex™ HEK293 kit and Lipofectamine LTX and Plus Reagent following manufacturer's protocols, as briefly described below.
Jump-in™ T-Rex™ HEK293 cells were plated in a BioCOAT® poly-D-lysine coated 6-well plate (Becton Dickinson, cat no. 354413) at 1 million cells/well in 2 mL culture medium and incubated for 18 h at 37° C. and 5% CO2 to 50-70% confluence. A cDNA mix was made in a 50 mL tube by adding 1.5 μg target cDNA, 1.5 μg pJT1R4 Int vector, 3 μL Plus Reagent, and 300 μL Opti-MEM I sequentially into the tube. A reagent mix was made in a separate 50 mL tube by adding 7.5 μL Lipofectamine LTX into 300 μL Opti-MEM I. The mixtures were incubated for 5 min at room temperature. The cDNA mix was then transferred into the reagent mix, mixed well, and incubated for additional 30 min at room temperature. A 500 μL of cDNA/Lipofectamine complex was then transferred to the wells of the cell plate in which the culture medium was changed to 2 mL of transfection medium containing DMEM with 4.5 g/L D-glucose supplemented with 10% FBS-HI and 20 mM HEPES. Transfected cells were cultured for 48 h in an incubator at 37° C. and 5% CO2. A subclone or pool from each overexpressing cell line was maintained in culture medium with the addition of 2 mg/mL G418 sulfate for the clone selection based on its built-in resistance to G418 sulfate for at least 3 weeks with medium changed every 2-3 days.
NPRs were overexpressed in T-Rex™ HEK293 cells following the induction with 300 ng/mL tetracycline in culture medium for 48 h. Induced cell lines in an exponential growth phase were treated with 0.05% trypsin-EDTA for a few seconds at room temperature, harvested in cell medium containing FBS to neutralize the trypsin, counted, and cryopreserved at the density of 2 million cells/mL in cell preservation solution containing FBS-HI with 5% DMSO. Cryopreserved cells were stored at −80° C. for a few days prior to transferring to a liquid nitrogen tank. Induced cell lines were then used for suspension assays to measure the activity of polypeptides to stimulate cGMP production in cGMP assays or for the preparation of cell membranes to measure the binding activity of polypeptides in competitive radioligand binding assays, as described below.
Test polypeptides were added starting at 10 μM concentration and at 10-fold decreasing concentrations to obtain 8-point concentration-response curves (i.e., 10 μM to 1 pM). The quantity of cGMP generated was detected using HTRF® technology and normalized to maximum amount produced by 100 nM amidated rat ANP and the minimum amount produced by assay buffer. Detailed steps are outlined below.
Stock solutions of test polypeptides (2 mM) dissolved in DMSO were first diluted 100-fold in assay buffer containing HBSS with Ca^2+ and Mg^2+, 5 mM HEPES, 0.5 mM IBMX, and 0.1% BSA or 0.1% casein (pH 7.4). The polypeptides were further serially diluted in 1:10 dilution steps in assay buffer containing 0.1% BSA or 0.1% casein to generate 8-point 2× working stock solutions ranging from 20 μM to […].
A 10 μL cell suspension containing 4000 cells was plated in Costar® half-area white opaque 96-well plates (Corning, cat no. 3693). Then 10 μL of assay buffer (basal activity), 200 nM of amidated rat ANP (maximum activity) or 2× working stock solutions of test polypeptides were transferred into the plate. Final concentration of DMSO in each well was 0.5%. The plate was shaken for 15 sec and then incubated for 40 min at room temperature.
The cGMP generated was measured using cGMP kit following the manufacturer's directions, as described below.
On the technique in general: Time-resolved FRET reads energy transfer from a long-lived donor to a nearby acceptor.

[1] abbreviates: cGMP Assay (EC50, pM) w/Casein hNPRA, assay buffer with 0.1% casein.

Regarding `CC[C@H](C)[C@@H]1NC(=O)[C@H](CCCNC(=N)N)NC(=O)[C@H](CC(=O)O)NC(=O)[C@H]([C@@H](C)CC)NC(=O)[C@H](CCCNC(=N)N)NC(=O)[C@H](CCCCN)NC(=O)CNC(=O)[C@H](Cc2ccccc2)NC(=O)[C@@H](NC(=O)[C@H](CO)NC(=O)[C@H](CO)NC(=O)[C@H](CCCNC(=N)N)NC(=O)[C@@H]2CCCN2C(=O)[C@H](CCCCN)NC(=O)[C@H](CCC(=O)O)NC(=O)CNC(=O)[C@H](CCCCN)NC(=O)[C@H](CCC(=O)O)NC(=O)[C@H](CCCCN)NC(=O)[C@H](CCC(=O)O)NC(=O)[C@H](CCCCN)NC(=O)[C@H](CCC(=O)O)NC(=O)CC[C@H](NC(=O)CCCCCCCCCCCCCCCCCCC(=O)O)C(=O)O)CSCSC[C@@H](C(=O)N2CCC[C@H]2C(=O)N[C@@H](CO)C(=O)N[C@@H](Cc2ccccc2)C(=O)N[C@@H](CCCNC(=N)N)C(=O)N[C@@H](Cc2c[nH]cn2)C(=O)NCC(=O)N[C@@H](CO)C(=O)N2CCC[C@H]2C(=O)N[C@@H](CO)C(=O)N[C@@H](CO)C(=O)NCC(=O)N[C@@H](C)C(=O)N2CCC[C@H]2C(=O)N2CCC[C@H]2C(=O)N2CCC[C@H]2C(=O)N[C@@H](CO)C(N)=O)NC(=O)CNC(=O)[C@H](CC(C)C)NC(=O)CNC(=O)[C@H](CO)NC(=O)[C@H](Cc2ccc(O)cc2)NC(=O)[C@H](CCCN)NC(=O)CNC1=O` [Example 135], the EC50 reads like this: (cGMP Assay (EC50, pM) w/BSA hNPRA, assay buffer with 0.1% BSA) 104000 pM; under setting [1], 497 pM. `CC[C@H](C)[C@@H]1NC(=O)[C@H](CCCNC(=N)N)NC(=O)[C@H](CC(=O)O)NC(=O)[C@H]([C@@H](C)CC)NC(=O)[C@H](CCCNC(=N)N)NC(=O)CNC(=O)CNC(=O)[C@H](Cc2ccccc2)NC(=O)[C@@H](NC(=O)[C@H](CO)NC(=O)[C@H](CO)NC(=O)[C@H](CCCNC(=N)N)NC(=O)[C@H](CCCNC(=N)N)NC(=O)[C@H](Cc2ccncc2)NC(=O)[C@H](CO)NC(=O)CNC(=O)[C@H](CCCCN)NC(=O)[C@H](CCC(=O)O)NC(=O)[C@H](CCCCN)NC(=O)[C@H](CCC(=O)O)NC(=O)[C@H](CCCCN)NC(=O)[C@H](CCC(=O)O)NC(=O)CC[C@H](NC(=O)CCCCCCCCCCCCCCCCCCC(=O)O)C(=O)O)CSCSC[C@@H](C(=O)N2CCC[C@H]2C(=O)N[C@@H](CO)C(=O)N[C@@H](Cc2ccccc2)C(=O)N[C@@H](CCCNC(=N)N)C(=O)N[C@@H](Cc2c[nH]cn2)C(=O)NCC(=O)NCC(=O)N2CCC[C@H]2C(=O)N[C@@H](CO)C(=O)N[C@@H](CO)C(=O)NCC(=O)N[C@@H](C)C(=O)N2CCC[C@H]2C(=O)N2CCC[C@H]2C(=O)N2CCC[C@H]2C(=O)N[C@@H](CO)C(N)=O)NC(=O)CNC(=O)[C@H](CC(C)C)NC(=O)CNC(=O)[C@H](CO)NC(=O)[C@H](CCC(N)=O)NC(=O)[C@H](Cc2c[nH]cn2)NC(=O)CNC1=O` [Example 2]: the EC50 under setting [1] was 1020 pM. On to `CC[C@H](C)[C@@H]1NC(=O)[C@H](CCCNC(=N)N)NC(=O)[C@H](CC(=O)O)NC(=O)[C@H]([C@@H](C)CC)NC(=O)[C@H](CCCNC(=N)N)NC(=O)CNC(=O)CNC(=O)[C@H](Cc2ccccc2)NC(=O)[C@@H](NC(=O)[C@H](CO)NC(=O)[C@H](CO)NC(=O)[C@H](CCCNC(=N)N)NC(=O)[C@H](CCCNC(=N)N)NC(=O)[C@H](CC(C)C)NC(=O)[C@H](CO)NC(=O)CNC(=O)[C@H](CCCCN)NC(=O)[C@H](CCC(=O)O)NC(=O)[C@H](CCCCN)NC(=O)[C@H](CCC(=O)O)NC(=O)[C@H](CCCCN)NC(=O)[C@H](CCC(=O)O)NC(=O)CC[C@H](NC(=O)CCCCCCCCCCCCCCCCCCC(=O)O)C(=O)O)CSSC[C@@H](C(=O)N[C@@H](CC(N)=O)C(=O)N[C@@H](CO)C(=O)N[C@@H](Cc2ccccc2)C(=O)N[C@@H](CCCNC(=N)N)C(=O)N[C@@H](Cc2ccncc2)C(N)=O)NC(=O)CNC(=O)[C@H](CC(C)C)NC(=O)CNC(=O)[C@H](CO)NC(=O)[C@H](CCC(N)=O)NC(=O)[C@H](C)NC(=O)CNC1=O` [Example 9] ({C20 diacid-γGlu}-EKEKEKGSLRRSSCFGGRIDRIGAQSGLGCNSFR[4Pal]-NH2; disulfide 14-30), for which the EC50 (assay buffer with 0.1% BSA, read-out: cGMP Assay (EC50, pM) w/BSA hNPRA) was 101000 pM. `CC[C@H](C)[C@@H]1NC(=O)[C@H](CCCNC(=N)N)NC(=O)[C@H](CC(=O)O)NC(=O)[C@H]([C@@H](C)CC)NC(=O)[C@H](CCCNC(=N)N)NC(=O)[C@H](CCCCN)NC(=O)CNC(=O)[C@H](Cc2ccccc2)NC(=O)[C@@H](NC(=O)[C@H](CO)NC(=O)[C@H](CO)NC(=O)[C@H](CCCNC(=N)N)NC(=O)[C@@H]2CCCN2C(=O)[C@H](CCCCN)NC(=O)[C@H](CCC(=O)O)NC(=O)COCCOCCNC(=O)COCCOCCNC(=O)COCCOCCNC(=O)COCCOCCNC(=O)COCCOCCNC(=O)COCCOCCNC(=O)COCCOCCNC(=O)COCCOCCNC(=O)CNC(=O)[C@H](CCCCN)NC(=O)[C@H](CCC(=O)O)NC(=O)[C@H](CCCCN)NC(=O)[C@H](CCC(=O)O)NC(=O)[C@H](CCCCN)NC(=O)[C@H](CCC(=O)O)NC(=O)CC[C@H](NC(=O)CCCCCCCCCCCCCCCCCCC(=O)O)C(=O)O)CSCSC[C@@H](C(=O)N2CCC[C@H]2C(=O)N[C@@H](CO)C(=O)N[C@@H](Cc2ccccc2)C(=O)N[C@@H](CCCNC(=N)N)C(=O)N[C@@H](Cc2c[nH]cn2)C(=O)N[C@@H](CO)C(=O)NCC(=O)N[C@@H](CO)C(=O)N2CCC[C@H]2C(=O)N[C@@H](CO)C(=O)N[C@@H](CO)C(=O)NCC(=O)N[C@@H](C)C(=O)N2CCC[C@H]2C(=O)N2CCC[C@H]2C(=O)N2CCC[C@H]2C(=O)N[C@@H](CO)C(=O)NCC(N)=O)NC(=O)CNC(=O)[C@H](CC(C)C)NC(=O)CNC(=O)[C@H](CO)NC(=O)[C@H](Cc2ccc(O)cc2)NC(=O)[C@H](Cc2c[nH]cn2)NC(=O)CNC1=O` [Example 126] showed an EC50 under setting [1] of 1090 pM.

The values are drawn from US20240174727A1, “LONG-ACTING NATRIURETIC PEPTIDES AND USES THEREOF” (Eli Lilly and Company, priority 2022, published 2024).
